The record followed here is publication PMC9693455, “Synthesis of Tetrasubstituted Phosphorus Analogs of Aspartic Acid as Antiproliferative Agents” (Molecules, 2022).

Broadly, the IC50 is the concentration at which inhibition is half-maximal. By melting point is commonly meant the temperature, or range, at which the solid turns liquid.

The subject of data set [1] is A549 (carcinomic human alveolar basal epithelial) cells. Description: In vitro cytotoxicity (antiproliferative activity), CCK-8 assay, A549. In kind it is cell-based. The conditions noted are these: for IC50: Homo sapiens, 48 h exposure, CCK-8. As for the experimental part: (§1) In vitro cytotoxicity of the phosphorated aspartic acid derivatives was evaluated by testing their antiproliferative activities against several human cancer cell lines. Cell counting kit (CCK-8) assay was used for the evaluation of growth inhibition. […] In addition, trisubstituted aminophosphonate 9a (Imine precursor, R^1 = H, R^2 = P(O)(OMe)2) and tetrasubstituted aminophosphonate 18 (R^1 = Me, R^2 = P(O)(OMe)2) are used as templates in order to evaluate the effect of the substituents (Table 1).
(§2) Human epithelial lung carcinoma cells (A549) (ATCC® CCL-185™, ATCC, Manassas, VA, USA) were grown in Kaighn’s Modification of Ham’s F-12 Medium (ATCC® 30-2004™, ATCC, Manassas, VA, USA) and lung fibroblast cells (MRC5) (ATCC® CCL-171™, ATCC, Manassas, VA, USA) were grown in Eagle’s Minimum Essential Medium (EMEM, ATCC® 30-2003™, ATCC, Manassas, VA, USA). Epithelial ovary adenocarcinoma cells (SKOV3) (ATCC® HTB-77™, ATCC, Manassas, VA, USA) were grown in McCoy’s 5A medium (ATCC® 30-2007™, ATCC, Manassas, VA, USA). All of them were supplemented with 10% of fetal bovine serum (FBS) (Sigma-Aldrich, Madrid, Spain) and with 1% of NORMOCIN solution (Thermo Fisher, Waltham, MA, USA). Cells were incubated at 37 °C and 5% CO2 atmosphere, and were split every 3–4 days to maintain monolayer coverage. For the cytotoxicity experiments, the A549 and SKOV3 cells were seeded in 96-well plates at a density of 2.5–3 × 10^3 cells per well and incubated overnight to achieve 70% of confluence at the time of exposition to the cytotoxic compound.
(§3) Cells were exposed to different concentrations of the cytotoxic compounds and were incubated for 48 h. Then, 10 µL of cell counting kit-8 was added into each well for an additional two hours’ incubation at 37 °C. The absorbance of each well was determined by an Automatic Elisa Reader System (Thermo Scientific Multiskan FC Automatic Elisa Reader System, Thermo Scientific, Shanghai, China) at 450 nm wavelength.
(Formazan colour is commonly taken as a measure of viable cells.)

Data set [2] deals with MRC5 lung fibroblast cells. Description: Selective toxicity, CCK-8 assay, non-malignant MRC5 lung fibroblasts. In kind it is cell-based. The conditions noted are these: for IC50: Homo sapiens, non-malignant MRC5 lung fibroblasts, 48 h exposure, CCK-8. How it is done:
as §1, §2, §3

The test system of data set [3] is SKOV3 (human ovarian carcinoma) cells. Nature of the data set: In vitro cytotoxicity (antiproliferative activity), CCK-8 assay, SKOV3. The format is cell-based. The conditions noted are these: for IC50: Homo sapiens, SK-OV-3, 48 h exposure, CCK-8. How it is done:
as §1, §2, §3

Structures are written as SMILES.

Turning to `CCOC(=O)CC(NS(=O)(=O)c1ccc(C)cc1)(c1ccccc1)P(=O)(OC)OC` (stereo not drawn) [7a, Ethyl 3-(dimethoxyphosphoryl)-3-((4-methylphenyl)sulfonamido)-3-phenylpropanoate], the melting point lay in the range of 98 to 99 °C. For the same molecule, half-maximal inhibition in data set [1] (A549, 48 h) (IC50) required 2.66 ± 0.26 µM. The same molecule showed an IC50 in data set [2] of more than 50 µM. Besides, the IC50 in data set [3] was more than 50 µM.

`CCOC(=O)CC(NS(=O)(=O)c1ccc(C)cc1)(c1ccc(C)cc1)P(=O)(OC)OC` (stereo not drawn) [7b, Ethyl 3-(dimethoxyphosphoryl)-3-((4-methylphenyl)sulfonamido)-3-(p-tolyl)propanoate] returned a melting point of 117 to 118 °C. The molecule further came in with a half-inhibitory concentration (IC50) in data set [1] (A549, 48 h) of 0.34 ± 0.04 µM. In data set [2], the IC50 was 29.6 ± 2.98 µM and the “toxicity toward MRC5 non-malignant cells (in words)” value is reported as “some toxicity”. Also, in data set [3], the “cytotoxicity against SKOV3 cell line (in words)” value is “no activity” and the IC50 was more than 50 µM.

`CCOC(=O)CC(NS(=O)(=O)c1ccc(C)cc1)(c1cccc(C)c1)P(=O)(OC)OC` (stereo not drawn) [7c, Ethyl 3-(dimethoxyphosphoryl)-3-((4-methylphenyl)sulfonamido)-3-(m-tolyl)propanoate]: the melting point is 103 to 104 °C. Moreover, the half-maximal inhibitory concentration (IC50) in data set [1] (A549, 48 h) was found to be 2 ± 0.52 µM. In addition, the IC50 in data set [2] is more than 50 µM. Besides, in data set [3], the “cytotoxicity against SKOV3 cell line (in words)” value is given as “no activity” and the IC50 is more than 50 µM.

With `CCOC(=O)CC(NS(=O)(=O)c1ccc(C)cc1)(c1ccc(SC(Cl)(Cl)Cl)cc1)P(=O)(OC)OC` (stereo not drawn) [7d, Ethyl 3-(dimethoxyphosphoryl)-3-((4-methylphenyl)sulfonamido)-3-(4-((trichloromethyl)thio)phenyl)propanoate], the melting point was 123 to 124 °C. In data set [1] (A549, 48 h), this molecule showed an IC50 of 4.41 ± 0.29 µM. The molecule also yielded an IC50 in data set [2] of 2.47 ± 0.3 µM. Half-maximal inhibition in data set [3] (IC50) was put at 6.43 ± 0.64 µM.

For `CCOC(=O)CC(NS(=O)(=O)c1ccc(C)cc1)(c1ccc(Br)cc1)P(=O)(OC)OC` (stereo not drawn) [7e, Ethyl 3-(4-bromophenyl)-3-(dimethoxyphosphoryl)-3-((4-methylphenyl)sulfonamido)propanoate], the melting point fell in the range of 138 to 139 °C. The same molecule returned a half-inhibitory concentration (IC50) in data set [1] (A549, 48 h) of 1.08 ± 0.09 µM. Besides, in data set [2], the IC50 was more than 50 µM. Also, the IC50 in data set [3] was more than 50 µM.

As for `CCOC(=O)CC(NS(=O)(=O)c1ccc(C)cc1)(c1ccc(Cl)cc1)P(=O)(OC)OC` (stereo not drawn) [7f, Ethyl 3-(4-chlorophenyl)-3-(dimethoxyphosphoryl)-3-((4-methylphenyl)sulfonamido)propanoate], the melting point lay in the range of 133 to 134 °C. In data set [1] (A549, 48 h), this molecule yielded a half-inhibitory concentration (IC50) of 3.09 ± 0.14 µM. Besides, the IC50 in data set [2] was more than 50 µM. Besides, in data set [3], inhibition was half-maximal at 24.1 ± 1.45 µM (IC50).

`CCOC(=O)CC(NS(=O)(=O)c1ccc(C)cc1)(c1cccc(Cl)c1)P(=O)(OC)OC` (stereo not drawn) [7g, Ethyl 3-(3-chlorophenyl)-3-(dimethoxyphosphoryl)-3-((4-methylphenyl)sulfonamido)propanoate] displayed a melting point of 88 to 89 °C. The molecule further displayed an IC50 in data set [1] (A549, 48 h) of 2.96 ± 0.34 µM. Moreover, in data set [2], the 50% inhibitory concentration (IC50) was determined as 38.1 ± 1.61 µM and the “toxicity toward MRC5 non-malignant cells (in words)” value is recorded as “toxic against the healthy cells”. In data set [3], the IC50 was more than 50 µM.

In turn, `CCOC(=O)CC(NS(=O)(=O)c1ccc(C)cc1)(c1ccc(Cl)c(Cl)c1)P(=O)(OC)OC` (stereo not drawn) [7h, Ethyl 3-(3,4-dichlorophenyl)-3-(dimethoxyphosphoryl)-3-((4-methylphenyl)sulfonamido)propanoate] returned a melting point of 109 to 110 °C. Further, 1.05 ± 0.42 µM corresponded to half-maximal inhibition in data set [1] (A549, 48 h) (IC50). For the same molecule, in data set [2], 11.3 ± 1.16 µM corresponded to half-maximal inhibition (IC50). The same molecule had an IC50 in data set [3] of 6.94 ± 0.63 µM.

In turn, `CCOC(=O)CC(NS(=O)(=O)c1ccc(C)cc1)(c1ccc(OC)c(Cl)c1)P(=O)(OC)OC` (stereo not drawn) [7i, Ethyl 3-(3-chloro-4-methoxyphenyl)-3-(dimethoxyphosphoryl)-3-((4-methylphenyl)sulfonamido)propanoate] yielded a melting point of 153 to 154 °C. The same molecule displayed an IC50 in data set [1] (A549, 48 h) of 1.44 ± 0.15 µM. In data set [2], the IC50 was more than 50 µM. The same molecule came in with an IC50 in data set [3] of more than 50 µM.

For the molecule `CCOC(=O)CC(NS(=O)(=O)c1ccc(C)cc1)(c1c(F)c(F)c(F)c(F)c1F)P(=O)(OC)OC` (stereo not drawn) [7o, Ethyl 3-(dimethoxyphosphoryl)-3-((4-methylphenyl)sulfonamido)-3-(perfluorophenyl)propanoate], the 50% inhibitory concentration (IC50) in data set [1] (A549, 48 h) is 3.65 ± 0.21 µM; in data set [2], more than 50 µM; in data set [3] it was 20.5 ± 2.75 µM.

On to `COP(=O)(OC)C(NS(=O)(=O)c1ccc(C)cc1)c1ccccc1` (stereo not drawn) [9a], for which the IC50 in data set [1] (A549, 48 h) was 17.6 ± 1.3 µM; in data set [2], more than 50 µM; in data set [3] it was more than 50 µM.

In turn, `COP(=O)(OC)C(CC(=O)OCc1ccccc1)(NS(=O)(=O)c1ccc(C)cc1)c1cccc(F)c1` (stereo not drawn) [13a, Benzyl 3-(dimethoxyphosphoryl)-3-(3-fluorophenyl)-3-((4-methylphenyl)sulfonamido)propanoate] showed a melting point of 78 to 79 °C. In data set [1] (A549, 48 h), this molecule came in with an IC50 of 12.8 ± 2.38 µM. In data set [3], the “cytotoxicity against SKOV3 cell line (in words)” value was “no toxicity” and the IC50 was more than 50 µM.

Regarding `CCOC(=O)C[C@](NS(=O)(=O)c1ccc(C)cc1)(c1cccc(F)c1)P(=O)(OC)OC` [(R)-7k], the IC50 in data set [1] (A549, 48 h) turned out to be 1.61 ± 0.2 µM.

For `CCOC(=O)C[C@@](NS(=O)(=O)c1ccc(C)cc1)(c1cccc(F)c1)P(=O)(OC)OC` [(S)-7k], the IC50 in data set [1] (A549, 48 h) stood at 1.56 ± 0.39 µM.

`COc1cccc2c1C(=O)c1c(O)c3c(c(O)c1C2=O)C[C@@](O)(C(=O)CO)C[C@@H]3O[C@H]1C[C@H](N)[C@H](O)[C@H](C)O1` [Doxorubicin, reference compound] displayed an IC50 in data set [1] of less than 0.1 µM.

On to `CCOC(=O)CC(NS(=O)(=O)c1ccc(C)cc1)c1ccccc1` (stereo not drawn) [compound 5, Ethyl 3-((4-methylphenyl)sulfonamido)-3-phenylpropanoate], for which the IC50 in data set [1] was 18.7 ± 2.16 µM; in data set [2], more than 50 µM; in data set [3], more than 50 µM.

Take `CCOC(=O)CC(NS(=O)(=O)c1ccc(C)cc1)(C(=O)OCC)c1ccccc1` (stereo not drawn) [compound 6, Diethyl 2-((4-methylphenyl)sulfonamido)-2-phenylsuccinate]: the IC50 in data set [1] was 14.2 ± 0.41 µM; in data set [2], more than 50 µM; in data set [3] it was more than 50 µM.

`COC(=O)CC(NS(=O)(=O)c1ccc(C)cc1)(c1cccc(F)c1)P(=O)(OC)OC` (stereo not drawn) [compound 12, Methyl 3-(dimethoxyphosphoryl)-3-(3-fluorophenyl)-3-((4-methylphenyl)sulfonamido)propanoate]: the melting point fell in the range of 115 to 116 °C. The molecule also displayed a concentration for half-maximal inhibition (IC50) in data set [1] (A549, 48 h) of 24.1 ± 4.01 µM. For the same molecule, in data set [3], the “cytotoxicity against SKOV3 cell line (in words)” value was “no toxicity” and the IC50 is more than 50 µM.

On to `COP(=O)(OC)C(CC(=O)O)(NS(=O)(=O)c1ccc(C)cc1)c1ccccc1` (stereo not drawn) [compound 14, 3-(Dimethoxyphosphoryl)-3-((4-methylphenyl)sulfonamido)-3-phenylpropanoic acid], for which the IC50 is 20.6 ± 1.05 µM in data set [1] (A549, 48 h); more than 50 µM in data set [2]; more than 50 µM in data set [3].

As to `COP(=O)(OC)C(C)(NS(=O)(=O)c1ccc(C)cc1)c1ccccc1` (stereo not drawn) [compound 18, Dimethyl (1-((4-methylphenyl)sulfonamido)-1-phenylethyl)phosphonate], the “cytotoxicity against A549 cell line (in words)” value in data set [1] was “no cytotoxicity”. Also, the IC50 in data set [1] (A549, 48 h) is more than 50 µM; in data set [3], more than 50 µM.
